Assay results: patent US8895047B2, “Combined fibrinolytic and antimicrobial catheter and uses thereof” (priority 2007, dated 2014)

How the values were obtained:
[1] = test system: S. epidermidis; experiment: Minimum inhibitory concentration of chlorhexidine acetate against S. epidermidis; type: cell-based
Procedure: FIG. 4. Chlorhexidine activity in the presence of urokinase. […] CHA MIC Control=urokinase in tris-buffered saline (TBS)+CHA+Mueller-Hinton broth (MHB); Growth Control=dimethyl sulfoxide (DMSO)+TBS+S. epidermidis+MHB; Negative Control=DMSO+TBS+MHB.
To determine if urokinase affects the antimicrobial efficacy of chlorhexidine, the following experiment was conducted. The minimum inhibitory concentration (MIC) of chlorhexidine acetate (CHA) against S. epidermidis is 0.5 ppm in the absence of urokinase. Absorbance above baseline on the plot in […] indicates growth of microbial organisms (i.e., inability to inhibit microbial growth). An increase in the MIC would be indicative of a reduction in the antimicrobial potency of CHA due to interference by Urokinase.

[2] = biological target: T1, human urokinase enzyme (Homo sapiens, UniProt P00749); experiment: uPA activity assay (chromogenic substrate) after incubation with antimicrobial agents; type: biochemical; conditions: for Urokinase activity in the presence of antimicrobial agent: concentrations up to 10 μg/mL, 24 hours at 37° C. with 88 units (0.5 μg) uPA in PBS, FIGS. 2 and 3
T1 construct: purchased American Diagnostica
Procedure: To check the compatibility of urokinase (uPA) and chlorhexidine acetate (CHA), human urokinase enzyme (American Diagnostica) at different concentrations (0, 0.05, 0.5, and 1.0 μg/mL) was incubated with CHA at concentrations between 0-10 μg/mL for 24 hours at 37° C. in phosphate buffered saline (PBS). Subsequently, urokinase activity was measured using uPA Activity Assay Kit (Chemicon). Samples were incubated with an assay buffer and a chromogenic substrate for uPA resulting in the formation of a colored complex followed by reading the absorbance on a spectrophotometer at 405 nm. In a 96 well plate, different combinations of chlorhexidine (CHX), gentian violet (GV), minocycline and rifampin were incubated at concentrations of 0, 1, 10 μg/mL, for 24 hours at 37° C., with 88 units (0.5 μg) of uPA in PBS. Urokinase activity was measured using uPA Activity Assay Kit as described earlier.

[3] = biological target: T2, human streptokinase (Streptococcus dysgalactiae subsp. equisimilis, UniProt P00779); experiment: Streptokinase activity assay (S-2251 chromogenic substrate, plasminogen) after incubation with antimicrobial agents; type: biochemical; conditions: any concentration up to 10 μg/mL, overnight at 37° C. with 16.5 units streptokinase; FIG. 7
T2 construct: purchased Sigma
T2 sequence (P00779 27-440): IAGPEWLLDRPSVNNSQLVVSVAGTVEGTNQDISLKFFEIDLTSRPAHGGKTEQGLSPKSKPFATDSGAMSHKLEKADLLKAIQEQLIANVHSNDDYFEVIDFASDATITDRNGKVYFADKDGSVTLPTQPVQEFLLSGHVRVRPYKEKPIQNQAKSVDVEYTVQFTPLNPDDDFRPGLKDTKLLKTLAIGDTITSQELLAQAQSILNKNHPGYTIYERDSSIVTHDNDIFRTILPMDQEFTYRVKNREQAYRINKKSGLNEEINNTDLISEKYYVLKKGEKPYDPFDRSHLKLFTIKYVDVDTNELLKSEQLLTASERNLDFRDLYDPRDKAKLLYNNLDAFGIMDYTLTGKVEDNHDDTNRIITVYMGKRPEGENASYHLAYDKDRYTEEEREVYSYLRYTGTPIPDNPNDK
Procedure: In a 96 well plate, different combinations of chlorhexidine (0, 1, 10 μg/mL) and gentian violet (0, 1, 10 μg/mL) were incubated overnight with 16.5 units of human streptokinase (Sigma) at 37° C., in 10 mM Tris-HCl buffer containing 0.1M NaCl and 1 mg/mL albumin. Streptokinase activity was measured using a chromogenic substrate S-2251 (Chromogenix). Samples were incubated with 0.6 mM S-2251 and 0.1 U/ml plasminogen (Sigma) for one hour. Hydrolysis of the substrate was measured at 405 nm and a standard curve was generated with the units plotted against the slope of the hydrolysis reaction.

[4] = biological target: T3, human tPA (Homo sapiens, UniProt P00750); experiment: tPA activity assay (chromogenic substrate) after incubation with antimicrobial agents; type: biochemical; conditions: concentrations up to 10 μg/mL, overnight at 37° C. with 50 units human tPA; FIGS. 5 and 6
T3 construct: purchased Sigma
T3 sequence (P00750 36-562): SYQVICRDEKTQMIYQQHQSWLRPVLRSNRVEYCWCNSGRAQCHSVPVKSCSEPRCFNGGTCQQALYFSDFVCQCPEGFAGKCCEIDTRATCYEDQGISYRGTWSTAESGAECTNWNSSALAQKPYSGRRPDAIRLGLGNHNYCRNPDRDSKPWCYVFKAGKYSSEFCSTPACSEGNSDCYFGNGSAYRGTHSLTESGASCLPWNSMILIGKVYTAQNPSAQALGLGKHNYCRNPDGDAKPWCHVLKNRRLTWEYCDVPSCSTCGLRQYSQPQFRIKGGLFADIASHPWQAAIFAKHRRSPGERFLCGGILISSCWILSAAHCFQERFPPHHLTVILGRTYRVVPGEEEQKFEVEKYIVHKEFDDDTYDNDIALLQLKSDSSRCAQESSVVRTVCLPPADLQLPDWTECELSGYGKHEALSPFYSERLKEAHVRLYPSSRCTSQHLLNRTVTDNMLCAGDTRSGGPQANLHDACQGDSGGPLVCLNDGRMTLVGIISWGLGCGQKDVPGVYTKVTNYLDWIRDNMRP
Procedure: Different combinations of CHX, GV, minocycline and rifampin (0, 1, 10 μg/mL) were incubated overnight with 50 units of human tPA (Sigma) at 37° C., in buffer (30 mM Tris-HCl, 30 mM Imidazole, 130 mM NaCl, 1% protease free albumin). Samples were incubated with the chromogenic substrate (Sigma); tPA activity was determined by the hydrolysis of the substrate being measured continuously at 405 nm for 5 min at 50 seconds intervals. A standard curve was generated and the units plotted against the slope of the hydrolysis reaction.

CC(=O)O.CC(=O)O.NC(=N\CCCCCC/N=C(N)/N=C(\N)Nc1ccc(Cl)cc1)/N=C(\N)Nc1ccc(Cl)cc1 [CHA, chlorhexidine acetate]
minimum inhibitory concentration (MIC) ([1]; in the absence of urokinase): 0.5 ppm | MIC in the presence of Urokinase ([1]; presence of urokinase, FIG. 4): not affected | Urokinase activity in the presence of CHA ([2]; CHA 0-10 μg/mL with uPA 0-1.0 μg/mL, 24 hours at 37° C. in PBS, CHA:uPA ratio 0.05 or higher, FIG. 1): not affected

[H]/N=C(\N/C(=N/[H])NCCCCCCNC(=N)NC(=N)Nc1ccc(Cl)cc1)Nc1ccc(Cl)cc1 [CHX, chlorhexidine]
streptokinase activity in the presence of antimicrobial agent [3]: unaffected | tPA activity in the presence of antimicrobial agent [4]: not affected | Urokinase activity in the presence of antimicrobial agent [2]: not adversely affected

CN(C)c1ccc(C(=C2C=CC(=[N+](C)C)C=C2)c2ccc(N(C)C)cc2)cc1 [GV, gentian violet]
streptokinase activity in the presence of antimicrobial agent [3]: unaffected | tPA activity in the presence of antimicrobial agent [4]: not affected | Urokinase activity in the presence of antimicrobial agent [2]: not adversely affected

CO[C@H]1/C=C/O[C@@]2(C)Oc3c(C)c(O)c4c(O)c(c(/C=N/N5CCN(C)CC5)c(O)c4c3C2=O)NC(=O)/C(C)=C\C=C\[C@H](C)[C@H](O)[C@@H](C)[C@@H](O)[C@@H](C)[C@H](OC(C)=O)[C@@H]1C [rifampin]
tPA activity in the presence of antimicrobial agent [4]: not affected | Urokinase activity in the presence of antimicrobial agent [2]: not adversely affected
